Results from the NIST ThermoML archive (doi:10.1021/je201334p).
Numbers after ± are expanded uncertainties.

Key:
[1] = xn = mol fraction of the nth substance listed; settings: 101 kPa, Liquid; for speed of sound: Sing-around technique in a fixed-path interferometer; for mass density: Vibrating tube method
[2] = refractive index (Na D-line) (dimensionless); xn = mol fraction of the nth substance listed; settings: 101 kPa, Liquid, Standard Abbe refractometry

CCCCn1cc[n+](C)c1.N#CN=C=[N-] [1-butyl-3-methylimidazolium dicyanamide] + O
Settings | mass density, 288.15 K [kg/m3] | mass density, 298.15 K [kg/m3] | mass density, 308.15 K [kg/m3] | refractive index, 288.15 K | refractive index, 298.15 K | refractive index, 308.15 K | speed of sound, 288.15 K [m/s] | speed of sound, 298.15 K [m/s] | speed of sound, 308.15 K [m/s]
[1], x2 = 0 | 1066.58 ± 1.3 | 1060.17 ± 1.2 | 1053.83 ± 1.2 | – | – | – | 1764.3 ± 2.3 | 1738.1 ± 2.3 | 1713.1 ± 2.3
[1], x2 = 0.1088 | 1065.59 ± 1 | 1059.16 ± 1 | 1052.79 ± 0.99 | – | – | – | 1762 ± 2.1 | 1736.9 ± 2.1 | 1712.4 ± 2.1
[1], x2 = 0.1227 | 1065.44 ± 0.99 | 1059.01 ± 0.98 | 1052.64 ± 0.96 | – | – | – | 1761.9 ± 2.1 | 1736.8 ± 2.1 | 1712.2 ± 2.1
[1], x2 = 0.2017 | 1064.62 ± 0.84 | 1058.16 ± 0.83 | 1051.77 ± 0.81 | – | – | – | 1760.9 ± 2 | 1735.9 ± 2 | 1711.6 ± 1.9
[1], x2 = 0.2943 | 1063.46 ± 0.68 | 1056.98 ± 0.67 | 1050.55 ± 0.66 | – | – | – | 1759.9 ± 1.8 | 1735 ± 1.8 | 1710.7 ± 1.8
[1], x2 = 0.3952 | 1061.88 ± 0.52 | 1055.35 ± 0.51 | 1048.88 ± 0.51 | – | – | – | 1758.3 ± 1.7 | 1734 ± 1.7 | 1710 ± 1.7
[1], x2 = 0.503 | 1059.83 ± 0.38 | 1053.24 ± 0.38 | 1046.7 ± 0.37 | – | – | – | 1756.8 ± 1.5 | 1733 ± 1.5 | 1709.4 ± 1.5
[1], x2 = 0.5985 | 1057.37 ± 0.28 | 1050.71 ± 0.28 | 1044.09 ± 0.27 | – | – | – | 1755.5 ± 1.4 | 1732.1 ± 1.4 | 1709 ± 1.4
[1], x2 = 0.7032 | 1053.63 ± 0.19 | 1046.89 ± 0.19 | 1040.15 ± 0.19 | – | – | – | 1751.4 ± 1.3 | 1729.1 ± 1.3 | 1706.9 ± 1.3
[1], x2 = 0.805 | 1047.26 ± 0.13 | 1040.5 ± 0.13 | 1033.69 ± 0.12 | – | – | – | 1738.5 ± 1.2 | 1718.6 ± 1.2 | 1698.2 ± 1.2
[1], x2 = 0.9006 | 1035.92 ± 0.08 | 1029.6 ± 0.08 | 1023.11 ± 0.08 | – | – | – | 1694.1 ± 1.1 | 1682.2 ± 1.1 | 1668.8 ± 1.1
[1], x2 = 0.9503 | 1024.07 ± 0.07 | 1018.75 ± 0.07 | 1013.06 ± 0.07 | – | – | – | 1630.6 ± 1.1 | 1630.5 ± 1 | 1627.4 ± 1.1
[2], x2 = 0 | – | – | – | 1.51213 ± 0.00065 | 1.50893 ± 0.00065 | 1.50578 ± 0.00065 | – | – | –
[2], x2 = 0.1088 | – | – | – | 1.5099 ± 0.00062 | 1.50673 ± 0.00063 | 1.50348 ± 0.00063 | – | – | –
[2], x2 = 0.1227 | – | – | – | 1.50953 ± 0.00062 | 1.50631 ± 0.00062 | 1.50321 ± 0.00062 | – | – | –
[2], x2 = 0.2017 | – | – | – | 1.50758 ± 0.00059 | 1.50443 ± 0.00061 | 1.50114 ± 0.00062 | – | – | –
[2], x2 = 0.2943 | – | – | – | 1.50476 ± 0.00057 | 1.50161 ± 0.00059 | 1.49821 ± 0.00061 | – | – | –
[2], x2 = 0.3952 | – | – | – | 1.50075 ± 0.00055 | 1.49756 ± 0.00057 | 1.49443 ± 0.00059 | – | – | –
[2], x2 = 0.503 | – | – | – | 1.49536 ± 0.00051 | 1.49223 ± 0.00055 | 1.48897 ± 0.0006 | – | – | –
[2], x2 = 0.5985 | – | – | – | 1.48855 ± 0.00049 | 1.48541 ± 0.00054 | 1.48225 ± 0.00061 | – | – | –
[2], x2 = 0.7032 | – | – | – | 1.47799 ± 0.00043 | 1.47495 ± 0.00053 | 1.47147 ± 0.00073 | – | – | –
[2], x2 = 0.805 | – | – | – | 1.46004 ± 0.00045 | 1.45694 ± 0.00052 | 1.45386 ± 0.00088 | – | – | –
[2], x2 = 0.9006 | – | – | – | 1.42867 ± 0.00056 | 1.42613 ± 0.00047 | 1.42382 ± 0.00096 | – | – | –
[2], x2 = 0.9503 | – | – | – | 1.39733 ± 0.00096 | 1.3952 ± 0.00045 | 1.39322 ± 0.0013 | – | – | –

CCCCCCn1cc[n+](C)c1.N#CN=C=[N-] [1-hexyl-3-methylimidazolium dicyanamide] + O
Settings | mass density, 288.15 K [kg/m3] | mass density, 298.15 K [kg/m3] | mass density, 308.15 K [kg/m3] | refractive index, 288.15 K | refractive index, 298.15 K | refractive index, 308.15 K | speed of sound, 288.15 K [m/s] | speed of sound, 298.15 K [m/s] | speed of sound, 308.15 K [m/s]
[1], x2 = 0 | 1034.76 ± 2.6 | 1028.56 ± 2.6 | 1022.4 ± 2.5 | – | – | – | 1713.4 ± 3.2 | 1687.7 ± 3.2 | 1662.7 ± 3.2
[1], x2 = 0.0785 | 1034.48 ± 2.2 | 1028.25 ± 2.2 | 1022.07 ± 2.2 | – | – | – | 1713.4 ± 3 | 1688.1 ± 3 | 1663.1 ± 3
[1], x2 = 0.1191 | 1034.31 ± 2 | 1028.07 ± 2 | 1021.88 ± 2 | – | – | – | 1713.8 ± 2.9 | 1688.3 ± 2.9 | 1663.3 ± 2.9
[1], x2 = 0.2124 | 1033.88 ± 1.6 | 1027.61 ± 1.6 | 1021.38 ± 1.6 | – | – | – | 1714.3 ± 2.6 | 1688.9 ± 2.6 | 1664 ± 2.6
[1], x2 = 0.3055 | 1033.38 ± 1.3 | 1027.08 ± 1.3 | 1020.81 ± 1.3 | – | – | – | 1715 ± 2.4 | 1689.7 ± 2.4 | 1664.8 ± 2.4
[1], x2 = 0.4019 | 1032.76 ± 0.99 | 1026.41 ± 0.97 | 1020.08 ± 0.96 | – | – | – | 1715.8 ± 2.1 | 1690.6 ± 2.1 | 1665.8 ± 2.1
[1], x2 = 0.5096 | 1031.9 ± 0.69 | 1025.46 ± 0.68 | 1019.04 ± 0.67 | – | – | – | 1717 ± 1.9 | 1692.1 ± 1.9 | 1667.6 ± 1.9
[1], x2 = 0.6069 | 1030.86 ± 0.48 | 1024.31 ± 0.47 | 1017.78 ± 0.46 | – | – | – | 1717.9 ± 1.6 | 1693.4 ± 1.6 | 1668.9 ± 1.6
[1], x2 = 0.7123 | 1029.08 ± 0.29 | 1022.4 ± 0.29 | 1015.71 ± 0.28 | – | – | – | 1717.1 ± 1.4 | 1693.2 ± 1.4 | 1669.1 ± 1.4
[1], x2 = 0.8067 | 1026.34 ± 0.17 | 1019.6 ± 0.17 | 1012.81 ± 0.16 | – | – | – | 1709.4 ± 1.3 | 1687.6 ± 1.3 | 1665.3 ± 1.3
[1], x2 = 0.9031 | 1020.46 ± 0.09 | 1014.13 ± 0.09 | 1007.62 ± 0.09 | – | – | – | 1672 ± 1.1 | 1659.1 ± 1.1 | 1644.5 ± 1.1
[1], x2 = 0.9499 | 1014.51 ± 0.06 | 1009.12 ± 0.07 | 1003.34 ± 0.07 | – | – | – | 1618.9 ± 1.1 | 1618.6 ± 1 | 1614.6 ± 1.1
[2], x2 = 0 | – | – | – | 1.50729 ± 0.00079 | 1.50415 ± 0.00079 | 1.501 ± 0.00079 | – | – | –
[2], x2 = 0.0785 | – | – | – | 1.50599 ± 0.00075 | 1.50284 ± 0.00075 | 1.49962 ± 0.00076 | – | – | –
[2], x2 = 0.1191 | – | – | – | 1.50525 ± 0.00073 | 1.5021 ± 0.00074 | 1.49894 ± 0.00074 | – | – | –
[2], x2 = 0.2124 | – | – | – | 1.50333 ± 0.00069 | 1.50016 ± 0.0007 | 1.49698 ± 0.00071 | – | – | –
[2], x2 = 0.3055 | – | – | – | 1.50096 ± 0.00065 | 1.4978 ± 0.00066 | 1.49462 ± 0.00068 | – | – | –
[2], x2 = 0.4019 | – | – | – | 1.49784 ± 0.00061 | 1.49467 ± 0.00063 | 1.49131 ± 0.00065 | – | – | –
[2], x2 = 0.5096 | – | – | – | 1.49312 ± 0.00057 | 1.48997 ± 0.00059 | 1.48679 ± 0.00063 | – | – | –
[2], x2 = 0.6069 | – | – | – | 1.48721 ± 0.00051 | 1.48405 ± 0.00057 | 1.48083 ± 0.00064 | – | – | –
[2], x2 = 0.7123 | – | – | – | 1.47716 ± 0.00046 | 1.474 ± 0.00055 | 1.47076 ± 0.00069 | – | – | –
[2], x2 = 0.8067 | – | – | – | 1.46233 ± 0.00047 | 1.45924 ± 0.00053 | 1.4559 ± 0.00091 | – | – | –
[2], x2 = 0.9031 | – | – | – | 1.43179 ± 0.00056 | 1.42902 ± 0.00049 | 1.42645 ± 0.001 | – | – | –
[2], x2 = 0.9499 | – | – | – | 1.40179 ± 0.001 | 1.39945 ± 0.00048 | 1.39679 ± 0.0014 | – | – | –
